Source: patent US12398106B2, “Catecholamine carbamate prodrugs for use in the treatment of parkinson's disease” (H. Lundbeck A/S, priority 2019, dated 2025)

Assays:
[1] = Conversion of compounds in human plasma (incubation, LC-MS/MS); type: in vitro ADME; settings: for Observed metabolite, incubation in human plasma: 1 μM test compound, 37° C., 0 to 6 hours
Method: Frozen human plasma was thawed and then centrifuged at 3200×g for 5 minutes to remove debris. The pH value of the supernatant was then measured and adjusted to 7.4±0.1 by adding 1% phosphoric acid or 1 N sodium hydroxide. 2 μL of dosing solution (50 μM for test compounds and 100 μM for positive control (propantheline bromide)) was mixed with 98 μL of blank plasma to achieve 1 μM test compound and 2 μM positive control of final concentration. The mixture was incubated, and samples were withdrawn from the incubations at the pre-determined time points of 0, 0.5, 1, 2, 4 and 6 hours (in duplicate) at 37° C. in water bath. At each corresponding time point 10 μL inhibitor and 20 μL ascorbic acid and 2 μL formic acid (20%) are added, and then added 400 μL of “stop solution” (200 ng/mL tolbutamide plus 200 ng/mL labetalol in 50% ACN/MeOH) to precipitate protein. The substance was mixed thoroughly and thereafter Centrifugated at 4,000 rpm for 20 minutes. Then an aliquot of supernatant (50 μL) was transferred from each well to a sample plate and mixed with 100 μL ultrapure water. The plate was shaked at 800 rpm for about 10 minutes before submitting to LC-MS/MS analysis.
Mass spectrometer (LC-MS/MS) Shimadzu LC 20-AD Shimadzu UHPLC API 4000. Analytical column ACQUITY UPLC® BEH Phenyl 1.7 μm 2.1×50 mm. Mobile phase A: 0.1% Formic Acid in Water. Mobile phase B: 0.1% Formic Acid in Acetonitrile. […] Flow rate 0.7 mL/min.

human 5-HT2B receptor [2] = target: T1, human 5-HT2B receptor (Homo sapiens, UniProt P41595); experiment: 5-HT2B agonist activity assay (IP1 production, HTRF, transfected CHO cells); type: cell-based
T1 construct: host or cells: CHO cells
T1 sequence (P41595 whole entry): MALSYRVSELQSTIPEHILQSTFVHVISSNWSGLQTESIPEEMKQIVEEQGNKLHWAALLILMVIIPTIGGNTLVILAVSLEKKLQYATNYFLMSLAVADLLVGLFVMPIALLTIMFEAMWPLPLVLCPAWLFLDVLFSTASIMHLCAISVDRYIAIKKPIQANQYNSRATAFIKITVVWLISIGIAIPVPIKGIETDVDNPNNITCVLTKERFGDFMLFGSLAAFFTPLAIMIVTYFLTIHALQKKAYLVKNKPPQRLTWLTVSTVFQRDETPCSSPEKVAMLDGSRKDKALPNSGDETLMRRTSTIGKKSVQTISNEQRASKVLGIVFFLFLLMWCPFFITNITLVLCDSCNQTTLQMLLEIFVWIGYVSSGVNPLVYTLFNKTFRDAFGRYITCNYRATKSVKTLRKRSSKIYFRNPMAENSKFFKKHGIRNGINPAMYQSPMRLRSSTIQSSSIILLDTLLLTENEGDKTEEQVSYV
Method: Evaluation of the agonist activity of compounds (I), (Ia) and (Ib) at the human 5-HT2B receptor was performed by Eurofins/Cerep (France) measuring the compound effects on inositol monophosphate (IP1) production using the HTRF detection method. Briefly, the human 5-HT2B receptor was expressed in transfected CHO cells. The cells were suspended in a buffer containing 10 mM Hepes/NaOH (pH 7.4), 4.2 mM KCl, 146 mM NaCl, 1 mM CaCl2, 0.5 mM MgCl2, 5.5 mM glucose and 50 mM LiCl, then distributed in microplates at a density of 4100 cells/well and incubated for 30 min at 37° C. in the presence of buffer (basal control), test compound or reference agonist. For stimulated control measurement, separate assay wells contained 1 μM 5-HT. Following incubation, the cells were lysed and the fluorescence acceptor (fluorophen D2-labeled IP1) and fluorescence donor (anti-IP1 antibody labeled with europium cryptate) were added. After 60 minutes at room temperature, the fluorescence transfer was measured at lambda(Ex) 337 nm and lambda (Em) 620 and 665 nm using a microplate reader (Rubystar, BMG). The IP1 concentration was determined by dividing the signal measured at 665 nm by that measured at 620 nm (ratio). The results were expressed as a percent of the control response to 1 μM 5-HT. […]

[3] = PK experiments in rats: plasma compound (I) after oral dosing of prodrug; settings: for Plasma concentrations / exposure of compound (I) after oral dosing of prodrug (in words): Wistar rats, doses equal to 287 μg/kg of compound (I); for Observed metabolite, in vivo PK study after oral dosing (rats): plasma
Method: For all the experiments, blood samples of approximately 0.68 mL were drawn from the tail or sublingual vein and put into K3EDTA tubes that had been pre-cooled and prepared with stabilizing solution consisting of 80 μL ascorbic acid and 40 μL 100 mM D-saccharic acid 1,4 lactone in water. The tubes were inverted gently 6-8 times to ensure thorough mixing and then placed in wet ice. The collecting tube was placed in wet ice for up to 30 minutes until centrifugation. Once removed from the wet ice the centrifugation was initiated immediately. Immediately after end of centrifugation the samples were returned to wet ice. Three sub-samples of 130 μL plasma were transferred to each of three appropriately labelled cryo tubes containing 6.5 μL pre-cooled formic acid (20%) (the tubes were pre-spiked and stored refrigerated prior to use). The tube lid was immediately replaced, and the plasma solution was thoroughly mixed by inverting gently 6-8 times. The samples were stored frozen at nominally −70° C. within 60 minutes after sampling. Centrifugation conditions at 3000 G for 10 minutes at 4° C. Plasma was placed on water-ice following collection. Final storage at approximately −70° C.
Plasma samples were analyzed by solid phase extraction or direct protein precipitation followed by UPLC-MS/MS. MS detection using electrospray in the positive ion mode with monitoring of specific mass-to-charge transitions for compound (I) using internal standards for correcting the response. The concentration-time data was analyzed, using standard software using appropriate noncompartmental techniques to obtain estimates of the derived PK parameters.
Mass spectrometer (LC-MS/MS) Waters Acquity-Sciex API 5000. Analytical column Waters BEH UPLC Phenyl 100×2.1 mm column, 1.7 μm particle size. Mobile phase A: 20 mM ammonium formate (aq)+0.5% formic acid. Mobile phase B: Acetonitrile. Gradient run from 95/5% to 2/98 in 6.1 minutes. Flow rate 0.5 mL/min. MRM monitoring (multiple reaction monitoring) of test item and the added analytical standards
Han Wistar rats were supplied by Charles River Laboratories, Sulzfeld, Germany. An artificial, automatically controlled, light and dark cycle of 12 hours was maintained. The rats received a standard laboratory diet from Brogaarden (Altromin 1324 pellets). The rats had unrestricted access to the diet.
Mass spectrometer (LC-MS/MS) Waters Acquity-Sciex API 5000. Analytical column Waters BEH UPLC Phenyl 100×2.1 mm column, 1.7 μm particle size. Mobile phase A: 20 mM ammonium formate (aq)+0.5% formic acid. Mobile phase B: Acetonitrile. Gradient run from 95/5% to 2/98 in 6.1 minutes. Flow rate 0.5 mL/min. MRM monitoring of test item and the added analytical standards.
Han Wistar rats were supplied by Charles River Laboratories, UK. An artificial, automatically controlled, light and dark cycle of 12 hours was maintained. The rats received a standard laboratory diet (Teklad 2014C Diet.). The rats had unrestricted access to the diet.
Mass spectrometer (LC-MS/MS) Waters Acquity—Waters Xevo TQ-S. Analytical column Acquity BEH C18 100×2.1 mm, 1.7 μm. Mobile phase A: 20 mM NH4—Formate+0.2% formic acid. Mobile phase B: Acetonitrile+0.2% formic acid. Gradient run from 95/5% to 5/95% in 11.0 minutes. Flow rate 0.3 mL/min. MRM monitoring of test item and the added analytical standards.
Han Wistar rats were supplied by Envigo, UK.

[4] = man, after oral dosing; cited from earlier work
human 5-HT2B receptor [5] = target: T1, human 5-HT2B receptor; experiment: 5-HT2B radioligand binding assay ([125I](±)DOI, CHO cell membranes); settings: read-out: 5-HT2B % at single concentration (binding affinity, % inhibition of control specific binding per footnote)
Method: Evaluation of the affinity of compounds for the human 5-HT2B receptor was determined in a radioligand binding assay at Eurofins/Cerep (France). Membrane homogenates prepared from CHO cells expressing the human 5HT2B receptor were incubated for 60 minutes at room temperature with 0.2 nM [125I](±)DOI (1-(4-iodo-2, 5-dimethoxyphenyl)propan-2-amine) in the absence or presence of the test compound in a buffer containing 50 mM Tris-HCl (pH 7.4), 5 mM MgCl2, 10 μM pargyline and 0.1% ascorbic acid. Nonspecific binding is determined in the presence of 1 μM (±)DOI. Following incubation, the samples were filtered rapidly under vacuum through glass fiber filters (GF/B, Packard) presoaked with 0.3% polyethyleneimine (PEI) and rinsed several times with ice-cold 50 mM Tris-HCl using a 96-sample cell harvester (Unifilter, Packard). The filters were dried and counted for radioactivity in a scintillation counter (Topcount, Packard) using a scintillation cocktail (Microscint 0, Packard). The results are expressed as a percent inhibition of the control radioligand specific binding. The standard reference compound was (±)DOI, which was tested in each experiment at several concentrations to obtain a competition curve from which its IC50 is calculated.

SMILES	Plasma concentrations / exposure of compound (I) after oral dosing of prodrug (in words) [3]	Observed metabolite, in vivo PK study after oral dosing (rats) [3]	inhibition at 10 µM (human 5-HT2B receptor [5])	also measured
CCCN1CCC[C@@H]2Cc3c(ccc(O)c3O)C[C@H]21 [Compound (I), (4aR,10aR)-1-Propyl-1,2,3,4,4a,5,10,10a-octahydro-benzo[g]quinoline-6,7-diol, reference compound]	–	–	–	Half-life in the plasma assay (in words) ([1]; human plasma incubation): short half-life
CCCN1CCC[C@@H]2Cc3c(ccc4c3OCO4)C[C@H]21 [Compound (Ib), (6aR,10aR)-7-propyl-6,6a,7,8,9,10,10a,11-octahydro-[1,3]dioxolo[4′,5′:5,6]benzo[1,2-g]quinoline, reference compound]	early and high peak concentrations of compound (I)	–	–	5-HT2B receptor agonism (in words) (human 5-HT2B receptor [2]; c.f. example 2 and Table 3): agonist of the 5-HT2B receptor
CCCc1cc2c(s1)CN[C@@H]1CCc3cc(OC(C)=O)c(OC(C)=O)cc3[C@@H]21 [Adrogolide]	–	–	–	Oral bioavailability [4]: ~4%
CCCN1CCC[C@@H]2Cc3c(ccc(OC(=O)N(C)C)c3OC(=O)N(C)C)C[C@H]21 [Compound (3), (4aR,10aR)-1-propyl-1,2,3,4,4a,5,10,10a-octahydrobenzo[g]quinoline-6,7-diyl bis(dimethylcarbamate)]	–	Compound (I)	4%	Observed metabolite, incubation in human plasma [1]: Compound (I)
CCCN1CCC[C@@H]2Cc3c(ccc(OC(=O)C(C)(C)C)c3OC(=O)C(C)(C)C)C[C@H]21 [(Ic), reference compound]	extremely low	–	–	–
CCCN1CCC[C@@H]2Cc3c(ccc(OC(=O)NC)c3OC(=O)NC)C[C@H]21 [Compound (1), (4aR,10aR)-1-propyl-1,2,3,4,4a,5,10,10a-octahydrobenzo[g]quinoline-6,7-diyl bis(methylcarbamate)]	–	Compound (I)	3%	–
CCCN1CCC[C@@H]2CC3=C(CCCC3=O)C[C@H]21 [Compound (Ia), reference compound]	early and high peak concentrations of compound (I)	–	–	5-HT2B agonist effect at single concentration (human 5-HT2B receptor [2]; @30 μM, percent of the control response to 1 μM 5-HT): 58%
CCCN1CCC[C@@H]2Cc3c(ccc(OC(=O)NCC)c3OC(=O)NCC)C[C@H]21 [Compound (2), (4aR,10aR)-1-propyl-1,2,3,4,4a,5,10,10a-octahydrobenzo[g]quinoline-6,7-diyl bis(ethylcarbamate)]	–	Compound (I)	3%	Observed metabolite, incubation in human plasma [1]: Compound (I)
